# From publication PMC9669442, “Discovery of novel inhibitors targeting nematode chitinase CeCht1: Virtual screening, biological evaluation, and molecular dynamics simulation” (Frontiers in Chemistry, 2022)
# Target: T1, CeCht1 (CeCht1-CAD) (Caenorhabditis elegans, UniProt Q11174)
# T1 construct: gene cht-1; secreted/overexpressed in Pichia pastoris GS115, purified as in Chen Q. et al. 2021; catalytic residues Asp175, Asp177, Glu179
# Test: end-point fluorescence assay, 4-methylumbelliferone release
# Format: biochemical
# Details: not given
# Excerpt: end-point fluorescence assay, 4-methylumbelliferone release on CeCht1 (CeCht1-CAD)
# T1 sequence (Q11174 52-431): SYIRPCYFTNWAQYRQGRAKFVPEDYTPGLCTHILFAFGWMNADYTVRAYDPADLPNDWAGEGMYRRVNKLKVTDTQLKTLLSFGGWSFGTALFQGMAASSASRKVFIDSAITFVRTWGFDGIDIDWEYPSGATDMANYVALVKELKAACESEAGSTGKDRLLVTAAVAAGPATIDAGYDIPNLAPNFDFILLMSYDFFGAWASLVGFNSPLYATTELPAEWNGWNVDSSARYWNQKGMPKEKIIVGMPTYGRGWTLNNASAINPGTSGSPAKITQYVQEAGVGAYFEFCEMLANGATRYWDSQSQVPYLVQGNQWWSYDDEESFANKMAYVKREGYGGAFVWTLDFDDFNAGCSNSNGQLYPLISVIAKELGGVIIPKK
row,Compound,IC50 [µM]
1,"CCn1c(=N)c(C(=O)NCCc2ccc(OC)cc2)cc2c(=O)n3cccc(C)c3nc21 [HAU-4, 1-ethyl-3-((4-methoxyphenethyl)carbamoyl)-10-methyl-5-oxo-1,5-dihydro-2H-dipyrido [1,2-a:2′,3′-d] pyrimidin-2-iminium]",4.2 ± 0.5
2,COc1ccc2cc(C(C)NC(=O)Cn3nnnc3CN3CCCC3)ccc2c1 (stereo not shown) [HAU-7],10 ± 2.6

# Same assay, conditions: 4 μM 4-MU-(GlcNAc)2, 10 nM enzyme, 20 mM sodium phosphate pH 6.0, 1% DMSO, 25 °C, 20 min
row,Compound,Inhibition rate at 10 μM (%)
1,CCOc1ccc2ccccc2c1/C=N/NC(=O)CNC(=O)c1ccc2c(c1)OCCO2 [HAU-15],2.0 ± 0.8
2,COc1ccc(OC)c(-c2nc(C(=O)NCC3CCCO3)cc3c2[nH]c2ccccc23)c1 (stereo not shown) [HAU-9],39.4 ± 3.3
3,Cc1ccc2nc(SCc3noc(CCC(=O)Nc4ccc(C)c(C)c4)n3)[nH]c2c1 [HAU-3],0.4 ± 0.2
4,CCOc1cccc(CNC2CC(C)(C)Cc3c2cnn3-c2ccc(C)cc2)c1O (stereo not shown) [HAU-11],34.9 ± 1.6
5,Cc1ccc(OCc2cc(=O)n3c4c(sc3n2)CCCC4)c(NC(=O)CC(C)C)c1 [HAU-1],30.4 ± 2.5
